Assay results reported in article PMC12607897, “Inhibition of HIV-1 replication by primer RNA packaging inhibitors” (mBio, 2025).

Key:
[1] = system: HIV-1 NL4-3 virus particles; experiment: digital PCR / RT-dPCR of minus-strand strong stop cDNA and viral RNA in particles; type: cell-based; conditions: 10 µM drug, 72 and 96 h after infection
Excerpt: We used digital RT-PCR and digital PCR to determine the viral mRNA and minus-strand strong stop viral cDNA content of the particles (Fig. 7; Fig. S6). The amount of early viral cDNA produced in the HIV-1 particles is a measure of the efficiency of the initiation step of reverse transcription, which requires the packaging of tRNA3^Lys at the budding step, the primer for cDNA synthesis.
Fig 7 Effect of drugs on viral synthesis of minus-strand strong stop cDNA. Viruses were harvested from the culture medium after 72 (red) or 96 h (blue) of infection of MT4 cells with NL4-3 viruses. Minus-strand strong stop viral DNA and viral RNA (vRNA) were quantified by digital PCR and RT-dPCR, respectively. Viruses were harvested from cultures grown in the presence of 10 µM of azelastine (Aze), lacidipine (Lac), or cilnidipine (Cil), or H2O or DMSO as controls. Values and the associated standard deviations (n = 3) are expressed as the ratios of the values obtained for the H2O or DMSO controls. […].
MT4 cells (2 × 10^6 cells) were infected with the NL4-3 viruses. After 4–5 h of infection at 37°C, cells were twice washed with PBS, incubated 5 min at 37°C in 0.25% trypsin-EDTA solution (Gibco) to eliminate viruses remaining in the medium, incubated 5 min at 37°C in complete RPMI medium, twice washed with PBS, resuspended in RPMI medium at a cell density of 200 × 10^3 cells/mL and incubated with 10 µM of azelastine (25 mM stock solution in H20), or lacidipine and cilnidipine (25 mM stock solution in DMSO). A second aliquot of the inhibitors was added to the culture medium 48 h after infection. […] All RNA and DNA quantifications were performed by digital PCR and RT-qPCR on a QIAcuity instrument (QIAGEN) using 26K 24-well nanoplates and the QIAcuity Probe PCR and One-Step Viral RT-PCR kits. Primers and probes were 5′-[…], 5′-[…], and 5′-[…] for the quantification of minus-strand strong-stop cDNA, and 5′-[…], 5′-[…], and 5′-[…] CGT for viral RNA quantification.

[2] = system: HIV-1 NL4-3 virus produced in MT4 cells; experiment: infectivity of virus particles by the CPRG method in HeLa P4 cells; type: cell-based; conditions: viruses recovered after MT4 cells were exposed to 10 µM drugs
Procedure: We used the CPRG method developed in HeLa P4 cells grown in 96-well plates to measure the infectivity of virus particles, as low levels of virus were recovered after exposure of infected MT4 cells to different drug concentrations. In this assay, expression of the LacZ gene is under the control of the HIV-1 LTR, and its level of trans-activation correlates with the level of expression of HIV-1 Tat. HeLa P4 cells were incubated with normalized amounts of virus as measured by the P24 assay, and the expression of β-galactosidase was determined by the CPRG assay (Fig. 5).
Fig 5 Infectivity of newly formed HIV-1 particles produced in the presence of drugs. MT4 cells were infected with the NL4-3 virus. […] The infectivity of HIV-1 viruses was determined by the CPRG method. […]
Replication of the NL4-3 virus was determined either by the ELISA technique or in HeLa-P4 cells by the CPRG method as described previously ([29]). These are HeLa CD4 LTR-lacZ cells in which the expression of lacZ is induced by the HIV transactivator Tat, allowing precise quantification of the infectivity of HIV-1. The viral titer was determined by quantifying β-galactosidase activity in HeLa-P4 lysates in a colorimetric assay based on the cleavage of chlorophenol red-β-D-galactopyranoside (CPRG) by β-galactosidase. The cytotoxicity is evaluated by the MTT assay.

[3] = biological target: T1, mLysRS:IN interaction (human mLysRS, HIV-1 IN) (UniProt P12497+Q15046); experiment: HTRF assay of mLysRS:IN interaction; type: binding, human / HIV-1; conditions: HTRF; mLysRS 1.5 nM dimer, IN 25 nM dimer; read-out: half-maximal inhibitory concentration (IC50) in the mLysRS:IN assay
T1 construct: made in house
Procedure: Fig 1 Determination of the half-maximal inhibitory concentration (IC50) of the drugs in the mLysRS:IN binding assay. The binding of mLysRS to IN (red) or p38 (blue) was monitored in the HTRF assay in the presence of increasing drug concentrations (9–1,000 µM). The experimental values (symbols) were fitted (curves) to the equation Y = Ymin + {(Ymax − Ymin)/[1 + (X/IC50)^n]}, where n is the Hill coefficient. […] Proteins were isolated as described previously ([4]). Several batches of IN were used throughout this study. […] The molecules are dissolved in DMSO at a final concentration of 10 mM. After a 1 h incubation on ice, antibodies (Cisbio) directed to the His-tag and conjugated with Eu^3+ cryptate (Cisbio #61HISKLB) and the HA-tag conjugated with XL665 (Cisbio #610HAXLB) were added, and incubation was continued for 30 min. After the addition of 50 mM KF, fluorescence of Eu^3+ cryptate and of XL665 was recorded at 620 nm (I620) and 665 nm (I665), respectively, following excitation of Eu^3+ cryptate at 317 nm, in an Infinite M1000 PRO microplate reader (TECAN). The results were expressed as the ratio of I665/I620.

T1 sequence (Q15046 other isoform, or with tags, fused parts or gaps, other chains not shown): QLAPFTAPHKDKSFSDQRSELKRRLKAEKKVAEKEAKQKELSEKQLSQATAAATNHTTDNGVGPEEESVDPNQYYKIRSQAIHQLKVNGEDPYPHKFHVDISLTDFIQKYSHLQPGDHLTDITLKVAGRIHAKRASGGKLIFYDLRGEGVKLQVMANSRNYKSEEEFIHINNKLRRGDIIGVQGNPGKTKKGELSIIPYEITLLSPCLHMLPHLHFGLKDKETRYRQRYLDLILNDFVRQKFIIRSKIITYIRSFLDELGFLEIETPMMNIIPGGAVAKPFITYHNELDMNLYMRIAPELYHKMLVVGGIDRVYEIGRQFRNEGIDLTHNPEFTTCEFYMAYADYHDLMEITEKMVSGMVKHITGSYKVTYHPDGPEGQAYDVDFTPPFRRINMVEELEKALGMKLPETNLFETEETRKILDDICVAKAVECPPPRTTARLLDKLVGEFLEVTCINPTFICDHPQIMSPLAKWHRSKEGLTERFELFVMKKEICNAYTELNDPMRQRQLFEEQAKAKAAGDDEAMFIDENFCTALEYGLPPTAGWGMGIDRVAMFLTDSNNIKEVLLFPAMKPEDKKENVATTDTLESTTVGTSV

CN1CCCC(n2nc(Cc3ccc(Cl)cc3)c3ccccc3c2=O)CC1 (stereo not drawn) [azelastine]
minus-strand strong stop cDNA in viruses, normalized to viral RNA [1]: significantly reduced | infectivity of viruses compared with wild-type viruses [2]: less than 4% | IC50 [3]: 340 ± 50 µM
